Data set [1] has as its system transplanted liver cancer H22. Kind of data set: Interferon combined with gemcitabine, transplanted liver cancer H22 in mice (Example 5). The class given is in vivo, BALB/c mice. The settings on record: gemcitabine only, 60 mg/kg i.p. once a week, 108 days observation. As for the experimental part: In this example, a comparative study on the efficacy of PEG-mIFN-α4 intermittent administration (once every 48 hours for three consecutive times, then drug withdrawal for 144 hours; for 8 rounds), PEG-mIFN-α4 continuous administration (once every 48 hours for 42 consecutive times), PEG-mIFN-α4 in combination with gemcitabine (PEG-mIFN-α4: once every 48 hours for three consecutive times, then drug withdrawal for 240 hours, 6 rounds; gemcitabine: once a week) on H22 transplanted liver cancer in mice was performed.
(§1) On the day when the tumor was inoculated, they were randomly divided into PEG-mIFN-α4 continuous administration group (N=24, female 12, male 12), PEG-mIFN-α4 intermittent administration group (N=24, female 12, male 12), the normal saline control group (N=24, female 12, male 12), the gemcitabine only group (N=24, female 12, male 12), and PEG-mIFN-α4 combined with gemcitabine group (N=24, female 12, male 12).
Gemcitabine was injected intraperitoneally, 60 mg/kg.
(§2) For the PEG-mIFN-α4 intermittent administration group, PEG-mIFN-α4 was administered once every 48 hours for three consecutive times, then drug withdrawal for 144 hours; for 8 rounds. For the PEG-mIFN-α4 continuous administration group, PEG-mIFN-α4 was administered once every 48 hours. For the PEG-mIFN-α4 combined with gemcitabine group, PEG-mIFN-α4 was administered once every 48 hours for three consecutive times, then drug withdrawal for 240 hours; for 6 rounds; and gemcitabine was administered once a week. For the gemcitabine only group, gemcitabine was administered once a week. For the saline control group, equal volume of saline was administered.
(§3) Survival analysis was performed for all groups to compare the differences between groups.

In data set [2] the test system is transplanted breast cancer 4T1. Description: Interferon combined with gemcitabine, transplanted breast cancer 4T1 in mice (Example 9). The class given is in vivo, BALB/c mice. The settings on record: gemcitabine only, 60 mg/kg i.p. once a week, 53 days after tumor inoculation, 60 mg/kg. As for the experimental part:
In this example, a comparative study on the efficacy of PEG-mIFN-α4 intermittent administration (once every 48 hours for 3 consecutive times, then drug withdrawal for 144 hours; for 5 rounds), PEG-mIFN-α4 continuous administration (once every 48 hours for 25 consecutive times), PEG-mIFN-α4 in combination with gemcitabine (PEG-mIFN-α4: once every 48 hours for 3 consecutive times, then drug withdrawal for 240 hours, 4 rounds; gemcitabine: once a week) on transplanted breast cancer 4T1 in mice was performed.
as §1
as §2, with “for 3” for “for three”, “for 5” for “for 8”, “for 4” for “for 6”, “administered. Gemcitabine was injected intraperitoneally, 60 mg/kg.” for “administered.”
(§4) SAS9.4 software was used for comparing the difference in mortality, and the statistical tests were all two-sided tests.

For data set [3], the system named is transplanted lung cancer LLC. Description: Interferon combined with gemcitabine, transplanted lung cancer LLC in mice (Example 6). The class given is in vivo, C57BL/6N mice. The settings on record: gemcitabine only, 60 mg/kg i.p. once a week, Day 64 post tumor inoculation, 60 mg/kg. How it is done:
In this example, a comparative study on the efficacy of PEG-mIFN-α4 intermittent administration (once every 48 hours for four consecutive times, then drug withdrawal for 192 hours; for 5 rounds), PEG-mIFN-α4 continuous administration (once every 48 hours for 32 consecutive times), PEG-mIFN-α4 in combination with gemcitabine (PEG-mIFN-α4: once every 48 hours for four consecutive times, then drug withdrawal for 360 hours, 4 rounds; gemcitabine: once a week) on transplanted […] LLC in mice was performed.
On the day when the tumor was inoculated, they were randomly divided into PEG-mIFN-α4 continuous administration group (N=26, female 13, male 13), PEG-mIFN-α4 intermittent administration group (N=26, female 13, male 13), the normal saline control group (N=26, female 13, male 13), the gemcitabine only group (N=26, female 13, male 13), and PEG-mIFN-α4 combined with gemcitabine group (N=26, female 13, male 13).
as §2, with “4” for “three”, “192” for “144”, “360” for “240”, “4” for “6”, “administered. Gemcitabine was injected intraperitoneally, 60 mg/kg.” for “administered.”
as §4

Data set [4] relates to transplanted melanoma B16. Kind of data set: Interferon combined with gemcitabine, transplanted melanoma B16 in mice (Example 8). The class given is in vivo, C57BL/6N mice. The settings on record: gemcitabine only, 60 mg/kg i.p. once a week, 48 days after tumor inoculation, 60 mg/kg. How it is done:
In this example, a comparative study on the efficacy of PEG-mIFN-α4 intermittent administration (once every 48 hours for 3 consecutive times, then drug withdrawal for 240 hours; for 4 rounds), PEG-mIFN-α4 continuous administration (once every 48 hours for 24 consecutive times), PEG-mIFN-α4 in combination with gemcitabine (PEG-mIFN-α4: once every 48 hours for 3 consecutive times, then drug withdrawal for 240 hours, 4 rounds; gemcitabine: once a week) on transplanted melanoma B16 in mice was performed.
On the day when the tumor was inoculated, they were randomly divided into PEG-mIFN-α4 continuous administration group (N=28, female 14, male 14), PEG-mIFN-α4 intermittent administration group (N=28, female 14, male 14), the normal saline control group (N=28, female 14, male 14), the gemcitabine only group (N=28, female 14, male 14), and PEG-mIFN-α4 combined with gemcitabine group (N=28, female 14, male 14).
as §2, with “for 3” for “for three”, “for 240” for “for 144”, “for 4” for “for 8”, “for 4” for “for 6”, “administered. Gemcitabine was injected intraperitoneally, 60 mg/kg.” for “administered.”
as §4

The subject of data set [5] is transplanted colorectal cancer CT26. Description: Interferon combined with gemcitabine, transplanted colorectal cancer CT26 in mice (Example 7). The format is in vivo, BALB/c mice. The conditions noted are these: gemcitabine only, 60 mg/kg i.p. once a week, 110 days observation, 60 mg/kg. As for the experimental part: In this example, a comparative study on the efficacy of PEG-mIFN-α4 intermittent administration (once every 48 hours for three consecutive times, then drug withdrawal for 144 hours; for 11 rounds), PEG-mIFN-α4 continuous administration (once every 48 hours for 55 consecutive times), PEG-mIFN-α4 in combination with gemcitabine (PEG-mIFN-α4: once every 48 hours for three consecutive times, then drug withdrawal for 240 hours, 8 rounds; gemcitabine: once a week) on transplanted colorectal cancer CT26 in mice was performed.
The anticancer agent is Gemcitabine (Jiangsu HAOSEN Pharmaceutical).
as §1
Gemcitabine was injected intraperitoneally, 60 mg/kg. […] For the PEG-mIFN-α4 intermittent administration group, PEG-mIFN-α4 was administered once every 48 hours for three consecutive times, then drug withdrawal for 144 hours; for 11 rounds. For the PEG-mIFN-α4 continuous administration group, PEG-mIFN-α4 was administered once every 48 hours. For the PEG-mIFN-α4 combined with gemcitabine group, PEG-mIFN-α4 was administered once every 48 hours for three consecutive times, then drug withdrawal for 240 hours; for 8 rounds; and gemcitabine was administered once a week. For the gemcitabine only group, gemcitabine was administered once a week. For the saline control group, equal volume of saline was administered.
as §3

Data set [6] deals with transplanted liver cancer H22. Description: Interferon combined with epirubicin, transplanted liver cancer H22 in mice (Example 10). The class given is in vivo, BALB/c mice. The conditions noted are these: epirubicin only, 3.5 mg/kg/w i.p. The source says:
The manufacturer of epirubicin was Beijing Union Pharmaceutical Factory.
Statistical tests were all two-sided tests.

For data set [7], the system named is transplanted liver cancer H22. The settings on record: oxaliplatin only, 10 mg/kg/w i.p.
Description: 6-8 weeks old, 18-22 g SPF grade BALB/c mice were subcutaneously inoculated with liver cancer H22 tumor cells (1×10^6 cells/mL, 0.2 ml/mouse) in the right forelimb axillary. 3 days after tumor inoculation, they were randomly divided into groups, with 28 mice in each group (fifty-fifty female and male mice), including normal saline control group, oxaliplatin only group, and PEG-mIFN-α4 combined with oxaliplatin group.
The administration was started on the day after grouping, once a week. PEG-mIFN-α4 was injected subcutaneously on the back of the neck, and oxaliplatin was injected intraperitoneally, in a dose of 10 mg/kg each time. The normal saline control group was administered an equal volume of normal saline.
All groups were subjected to survival curve analysis, and the median survival time was compared.
In data set [8] the test system is transplanted liver cancer H22. The settings on record: paclitaxel only, 10 mg/kg/w.
Description: In this example, BALB/c mice were purchased from Beijing Vital River Laboratory Animal Technology Co., Ltd., and the H22 mouse liver cancer cell line was purchased from the China Center for Type Culture Collection (CCTCC). The manufacturer of paclitaxel was Qilu Pharmaceutical (Hainan) Co., Ltd.
6-8 weeks old, 18-22 g SPF grade BALB/c mice were subcutaneously inoculated with liver cancer H22 tumor cells (1×10^6 cells/mL, 0.2 ml/mouse) in the right forelimb axillary. 3 days after tumor inoculation, they were randomly divided into groups, with 28 mice in each group (fifty-fifty female and male mice), including normal saline control group, paclitaxel only group, and PEG-mIFN-α4 combined with paclitaxel group.
The administration was started on the day after grouping, once a week. PEG-mIFN-α4 was injected subcutaneously on the back of the neck, in a dose of 1 mg/mouse each time, and oxaliplatin was injected intraperitoneally, in a dose of 10 mg/kg each time.
All groups were subjected to survival curve analysis, and the median survival time was compared. SAS 9.4 and office2010 software were used for statistical analysis. Statistical tests were all two-sided tests.
Data set [9] concerns mouse fibroblast/encephalomyocarditis virus (L929/EMCV). Description: Specific activity by mouse fibroblast/encephalomyocarditis virus (L929/EMCV) cytopathic inhibition method. The conditions noted are these: stock solution; commercial mIFN-α4 (R&D) as the standard. The format is cell-based. How it is done: The bacterial endotoxin content of the deglycosylated mIFN-α4 stock solution was determined by the Limulus reagent method as lower than 60 EU/mg. specific activity was determined as 5.4×10^8 U/mg by using the commercial mIFN-α4 (R&D, catalog number 12115-1) as the standard, and by using the mouse fibroblast/encephalomyocarditis virus (L929/EMCV) cytopathic inhibition method.
The bacterial endotoxin content of the PEG-mIFN-α4 stock solution was determined by the Limulus reagent method as lower than 15 EU/mg. Specific activity was determined as 6.1×10^6 U/mg by using the commercial mIFN-α4 (R&D, catalog number 12115-1) as the standard, and by using the mouse fibroblast/encephalomyocarditis virus (L929/EMCV) cytopathic inhibition method.
In general terms: Damage to the host cells serves as the signal in cytopathic effect assays.

Like-named read-outs stand apart in the source and are kept apart here.

`Nc1ccn([C@@H]2O[C@H](CO)[C@@H](O)C2(F)F)c(=O)n1` [Gemcitabine, reference compound]: the figures for the “Mean survival period (days post tumor inoculation)” value in [1], in [5] and in data set [5] (listed as gemcitabine) were 58.5 days, 99.0 days and 89.0 days, respectively. Also, the Mortality in [2] was determined as 87.5%; in [2] (listed as gemcitabine), 87.5%; in data set [3], 80.8%; in data set [3] (listed as gemcitabine), 80.8%; in [4], 89.3%; in data set [4] (listed as gemcitabine), 89.3%.
With `COc1cccc2c1C(=O)c1c(O)c3c(c(O)c1C2=O)C[C@@](O)(C(=O)CO)C[C@@H]3O[C@H]1C[C@H](N)[C@@H](O)[C@H](C)O1` [Epirubicin], the “Median survival period (Time after tumor inoculation, days)” value (from here on “Median survival period”) in [6] was 15.0 days; in data set [6] (listed as epirubicin) it was 15 days.
Take `O=C1[O][Pt]2([NH][C@@H]3CCCC[C@H]3[NH]2)[O]C1=O` [Oxaliplatin]: in data set [7], the “Median survival period” value is reported as 12.5 days.
With `CC(=O)O[C@H]1C(=O)[C@@]2(C)[C@H]([C@H](OC(=O)c3ccccc3)[C@]3(O)C[C@H](OC(=O)[C@H](O)[C@@H](NC(=O)c4ccccc4)c4ccccc4)C(C)=C1C3(C)C)[C@]1(OC(C)=O)CO[C@@H]1C[C@@H]2O` [Paclitaxel], the “Median survival period” value worked out at 17.0 days in [8] and 17 days in [8] (listed as paclitaxel).

B1: deglycosylated mIFN-α4: recombinant mouse interferon α4 (GenBank NP_034634) expressed in Pichia pastoris, glycosyl groups removed by glycosidase (protein, UniProt P07351 25-186, looked up)
Interferon alpha-4: CDLPHTYNLGNKRALTVLEEMRRLPPLSCLKDRKDFGFPLEKVDNQQIQKAQAILVLRDLTQQILNLFTSKDLSATWNATLLDSFCNDLHQQLNDLKACVMQEPPLTQEDSLLAVRTYFHRITVYLRKKKHSLCAWEVIRAEVWRALSSSTNLLARLSEEKE
modifications: deglycosylated
notes: recombinant mouse interferon α4 (GenBank NP_034634) expressed in Pichia pastoris, glycosyl groups removed by glycosidase
Consider B1, for which the Specific activity in data set [9] was 5.4×10^8 U/mg.

For the origin of these results see patent publication US20230270824A1, “INTERFERON-BASED CANCER TREATMENT METHOD AND PHARMACEUTICAL COMPOSITION” (XIAMEN AMOYTOP BIOTECH CO., LTD., priority 2019, published 2023).
